Holding throughout (format): in vivo
Series [1] has as its system Lolium multiflorum Lam. The series is described as follows: Test Example 5: herbicidal effect by foliage application, plastic box (symbol K). Conditions: 320 g/ha, 3 weeks after application. The method, boiled down: (§1)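 Herbicide, formulated as an emulsion and diluted in water, is sprayed onto the aerial parts of 14-day seedlings. These were grown at 25° C. to 30° C. in sterilized diluvial soil; effects are graded after 3 weeks.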

Series [2] relates to Lolium multiflorum Lam. The series is described as follows: Test Example 4: herbicidal effect by soil treatment (symbol K). In a few lines: (§2)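 Seeds were sown in sterilized diluvial soil, covered with about 1.5 cm of soil, and the soil surface was sprayed with a water-diluted emulsion of the compound at a predetermined rate. Plants grew in a greenhouse at 25° C. to 30° C.; effects were scored visually 3 weeks after application.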

The subject of the next series is Monochoria vaginalis. The series can be described thus: Test Example 2: herbicidal activity, application during weed generation in submerged conditions (symbol C). Conditions: Table 23; application herbicide amount 320 g/ha; grade 0-5 by criteria of Test Example 1. The method, boiled down:
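Scoring of herbicidal effect took place 3 weeks after treatment, using the criteria of the earlier test. Treatment was water-surface application of diluted emulsifiable compound at a set dose. Plants were at one- to two-leaf stage in submerged alluvial soil (4 cm depth), greenhouse 25-30° C.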

Series [3] concerns Apera spica-venti. The series can be described thus: Test Example 4: herbicidal effect by soil treatment (symbol L). Particulars: application herbicide amount 320 g/ha. In a few lines:
as §2

The subject of another series is Chenopodium album. The series is described as follows: Test Example 4: herbicidal effect by soil treatment (symbol O). In a few lines: as §2
Series [4] has as its system Echinochloa crus-galli var. crus-galli. The series can be described thus: Test Example 4: herbicidal effect by soil treatment (symbol H). In a few lines: as §2
For another series, the system named is soybean. The series is described as follows: Test Example 4: effect on crop by soil treatment (symbol d). Conditions: for d: soybean, effect grade on crop: 320 g/ha. In a few lines:
(§3)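 Crop seed is sown in spots together with several weed species in a box of sterilized diluvial soil. It is covered by about 1.5 cm of soil and kept in a greenhouse held between 25° C. and 30° C.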

A further series deals with rice. The series is described as follows: Test Example 4: effect on crop by soil treatment (symbol b). Conditions: for b: directly sowed rice plant, effect grade on crop: 320 g/ha. The method, boiled down: as §3
The test system of a further series is Digitaria ciliaris. The series can be described thus: Test Example 4: herbicidal effect by soil treatment (symbol F). In a few lines: as §2
Another series relates to Veronica persica. The series is described as follows: Test Example 4: herbicidal effect by soil treatment (symbol R). In a few lines:
as §2

For series [5], the system named is Echinochloa oryzacola Vasing. The series is described as follows: Test Example 1: herbicidal activity, application before weed generation in submerged conditions (symbol A). Conditions: application herbicide amount 320 g/ha. The method, boiled down: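 Mixed weed seeds sown in alluvial soil under 4 cm of water, with rice seedlings at the 2.5-leaf stage added. Same-day treatment: emulsion diluted to a set herbicide amount onto the water. Three weeks at 25–30 °C, then graded on a six-step scale.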

Another series concerns Avena fatua. The series can be described thus: Test Example 4: herbicidal effect by soil treatment (symbol I). The method, boiled down:
as §2

In series [6] the test system is Stellaria media. The series is described as follows: Test Example 5: herbicidal effect by foliage application, plastic box (symbol P). Conditions: 320 g/ha, 3 weeks after application. In a few lines:
as §1

A further series deals with transplanted rice plant. The series is described as follows: Test Example 1: effect on crop, application before weed generation in submerged conditions (symbol a). Particulars: application herbicide amount 320 g/ha. The method, boiled down:
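Rice at 2.5 leaf stage transplanted into submerged soil (4 cm depth) sown with three weed species; herbicide applied before weed emergence.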

The subject of series [7] is Echinochloa crus-galli var. crus-galli. The series can be described thus: Test Example 5: herbicidal effect by foliage application, plastic box (symbol H). Conditions: 320 g/ha, 3 weeks after application. The method, boiled down:
as §1

For series [8], the system named is Apera spica-venti. The series is described as follows: Test Example 5: herbicidal effect by foliage application, plastic box (symbol L). Particulars: 320 g/ha, 3 weeks after application. In a few lines: as §1
The subject of the next series is rapeseed. The series is described as follows: Test Example 4: effect on crop by soil treatment (symbol g). Particulars: for g: rapeseed, effect grade on crop: 320 g/ha. In a few lines:
as §3

Series [9] deals with Stellaria media. The series is described as follows: Test Example 4: herbicidal effect by soil treatment (symbol P). Conditions: 320 g/ha. The method, boiled down:
as §2

Where [10] appears, read: application herbicide amount 320 g/ha.

The values below come from patent publication US11000033B2, “Ketone or oxime compound, and herbicide” (NISSAN CHEMICAL CORPORATION, priority 2014, dated 2021).

In the case of `CON=C(C)CC1CC(O)=C(c2c(C)cc(-c3ccc(Cl)cc3)cc2C)C1=O` (mixture of isomers) [6-029], the “K: Lolium multiflorum Lam., herbicidal effect grade” value in the series with Lolium multiflorum Lam. [1] and in the series on Lolium multiflorum Lam. [2] (setting [10]) was 5 (Herbicidal ratio of 90% or more (almost completely withered)) throughout. Moreover, the “Herbicidal effect grade, C: Monochoria vaginalis” value (“Herbicidal effect grade, C” below) in the series with Monochoria vaginalis was 2 (Herbicidal ratio of 20% or higher and lower than 40%). Also, the “L: Apera spica-venti, herbicidal effect grade” value in the series on Apera spica-venti [3] and in the series with Apera spica-venti [8] was 5 (Herbicidal ratio of 90% or more (almost completely withered)) each time. The “O: Chenopodium album, herbicidal effect grade” value (from here on “O: Chenopodium album”) in the series on Chenopodium album (setting [10]) is 3 (Herbicidal ratio of 40% or higher and lower than 70%). The “H: Echinochloa crus-galli var. crus-galli, herbicidal effect grade” value in [4] (setting [10]) and in series [7] was 5 (Herbicidal ratio of 90% or more (almost completely withered)) throughout. In the series with soybean (setting [10]), the “d: soybean, effect on crop grade” value is reported as 0 (Herbicidal ratio of 5% or lower (almost no effect)). The “b: directly sowed rice plant, effect on crop grade” value in the series on rice (setting [10]) is 5 (Herbicidal ratio of 90% or more (almost completely withered)). The “F: Digitaria ciliaris, herbicidal effect grade” value (shortened to “F: Digitaria ciliaris”) in the series with Digitaria ciliaris (setting [10]) is 5 (Herbicidal ratio of 90% or more (almost completely withered)). Further, the “R: Veronica persica, herbicidal effect grade” value (“R: Veronica persica” for short) in the series on Veronica persica (setting [10]) was 4 (Herbicidal ratio of 70% or higher and lower than 90%). In addition, in series [5], the “Herbicidal effect grade, A: Echinochloa oryzacola Vasing.” value is 5 (Herbicidal ratio of 90% or more (almost completely withered)). For the same compound, the “I: Avena fatua, herbicidal effect grade” value in the series with Avena fatua (setting [10]) was 4 (Herbicidal ratio of 70% or higher and lower than 90%). Also, the “P: Stellaria media, herbicidal effect grade” value in the series on Stellaria media [6] was 3 (Herbicidal ratio of 40% or higher and lower than 70%). In the series with transplanted rice plant, the “Effect grade on crop, a: transplanted rice plant” value is 5 (Herbicidal ratio of 90% or more (almost completely withered)). Further, the “g: rapeseed, effect on crop grade” value with rapeseed (setting [10]) was 2 (Herbicidal ratio of 20% or higher and lower than 40%).
Consider `CON=C(C)CC1CC(OC(=O)N2CCCCC2)=C(c2c(C)cc(C)cc2C)C1=O` (stereo not drawn) [1-151], for which the “K: Lolium multiflorum Lam., herbicidal effect (criteria 0-5)” value in the series with Lolium multiflorum Lam. [1] is reported as 5 (Herbicidal ratio of 90% or more (almost completely withered)). Also, the “K: Lolium multiflorum Lam., herbicidal effect grade” value in the series on Lolium multiflorum Lam. [2] (320 g/ha) is 5 (Herbicidal ratio of 90% or more (almost completely withered)). Moreover, the “Herbicidal effect grade, C” value with Monochoria vaginalis is 2 (Herbicidal ratio of 20% or higher and lower than 40%). Besides, the “O: Chenopodium album” value with Chenopodium album (320 g/ha) is 0 (Herbicidal ratio of 5% or lower (almost no effect)). The “P: Stellaria media, herbicidal effect grade” value with Stellaria media [9] is given as 0 (Herbicidal ratio of 5% or lower (almost no effect)). In addition, the “H: Echinochloa crus-galli var. crus-galli, herbicidal effect grade” value in series [4] (320 g/ha) is recorded as 0 (Herbicidal ratio of 5% or lower (almost no effect)). In the series on soybean, the “d: soybean, effect grade on crop” value was 0 (Herbicidal ratio of 5% or lower (almost no effect)). Also, in the series with rice, the “b: directly sowed rice plant, effect grade on crop” value was 1 (Herbicidal ratio of 5% or higher and lower than 20%). In addition, the “F: Digitaria ciliaris” value in the series with Digitaria ciliaris (320 g/ha) is reported as 5 (Herbicidal ratio of 90% or more (almost completely withered)). For the same compound, the “R: Veronica persica” value with Veronica persica (320 g/ha) is recorded as 0 (Herbicidal ratio of 5% or lower (almost no effect)). For the same compound, in [5], the “Herbicidal effect grade, A: Echinochloa oryzacola Vasing.” value is recorded as 5 (Herbicidal ratio of 90% or more (almost completely withered)). In addition, the “I: Avena fatua, herbicidal effect grade” value with Avena fatua (320 g/ha) was 3 (Herbicidal ratio of 40% or higher and lower than 70%). Also, the “P: Stellaria media, herbicidal effect (criteria 0-5)” value with Stellaria media [6] is 0 (Herbicidal ratio of 5% or lower (almost no effect)). Further, the “Effect grade on crop, a: transplanted rice plant” value in the series with transplanted rice plant is 4 (Herbicidal ratio of 70% or higher and lower than 90%). Besides, in series [7], the “H: Echinochloa crus-galli var. crus-galli, herbicidal effect (criteria 0-5)” value was 5 (Herbicidal ratio of 90% or more (almost completely withered)). Besides, the “L: Apera spica-venti, herbicidal effect (criteria 0-5)” value in the series on Apera spica-venti [8] is 5 (Herbicidal ratio of 90% or more (almost completely withered)). The “g: rapeseed, effect grade on crop” value in the series on rapeseed is recorded as 0 (Herbicidal ratio of 5% or lower (almost no effect)).
Turning to `CON=C(C)CC1CC(OC(=O)c2c(Cl)nn(C)c2Cl)=C(c2c(C)cc(C)cc2C)C1=O` (stereo not drawn) [1-160], the “K: Lolium multiflorum Lam., herbicidal effect grade” value in the series with Lolium multiflorum Lam. [1] and in the series on Lolium multiflorum Lam. [2] (320 g/ha) was 5 (Herbicidal ratio of 90% or more (almost completely withered)) in each case. Besides, in the series on Monochoria vaginalis, the “Herbicidal effect grade, C” value is 4 (Herbicidal ratio of 70% or higher and lower than 90%). Besides, the “O: Chenopodium album” value in the series with Chenopodium album (320 g/ha) is 0 (Herbicidal ratio of 5% or lower (almost no effect)). In addition, the “P: Stellaria media, herbicidal effect grade” value is 0 (Herbicidal ratio of 5% or lower (almost no effect)) in the series with Stellaria media [9]; 3 (Herbicidal ratio of 40% or higher and lower than 70%) in the series with Stellaria media [6]. Moreover, the “H: Echinochloa crus-galli var. crus-galli, herbicidal effect grade” value in [4] (320 g/ha) and in series [7] was 5 (Herbicidal ratio of 90% or more (almost completely withered)) throughout. Further, the “d: soybean, effect grade on crop” value in the series on soybean is recorded as 0 (Herbicidal ratio of 5% or lower (almost no effect)). Also, the “b: directly sowed rice plant, effect grade on crop” value with rice is 5 (Herbicidal ratio of 90% or more (almost completely withered)). Further, the “F: Digitaria ciliaris” value in the series with Digitaria ciliaris (320 g/ha) is recorded as 5 (Herbicidal ratio of 90% or more (almost completely withered)). Further, in the series with Veronica persica (320 g/ha), the “R: Veronica persica” value is on record as 0 (Herbicidal ratio of 5% or lower (almost no effect)). The “Herbicidal effect grade, A: Echinochloa oryzacola Vasing.” value in [5] is listed as 5 (Herbicidal ratio of 90% or more (almost completely withered)). In the series with Avena fatua (320 g/ha), the “I: Avena fatua, herbicidal effect grade” value is reported as 0 (Herbicidal ratio of 5% or lower (almost no effect)). The “Effect grade on crop, a: transplanted rice plant” value in the series with transplanted rice plant is listed as 5 (Herbicidal ratio of 90% or more (almost completely withered)). For the same compound, in the series on Apera spica-venti [8], the “L: Apera spica-venti, herbicidal effect grade” value was 5 (Herbicidal ratio of 90% or more (almost completely withered)). Moreover, in the series with rapeseed, the “g: rapeseed, effect grade on crop” value is 4 (Herbicidal ratio of 70% or higher and lower than 90%).
